In patent US10766857B2, “Compound having BLT inhibitory activity and composition, for preventing or treating inflammatory diseases, comprising same as active ingredient” (DONGGUK UNIVERSITY INDUSTRY-ACADEMIC COOPERATION FOUNDATION, priority 2015, dated 2020):

Columns and labels:
[1] = target: T1, BLT2-expressing cells (CHO-BLT2 cells) (Homo sapiens, UniProt Q9NPC1); assay: MTT cell growth of LTB4-stimulated BLT2-expressing cells; format: cell-based; details: pre-treated at 10 μM, LTB4 300 nM
T1 construct: HA; expressed in transfected cells
T1 sequence (Q9NPC1 with tags, fused parts or gaps): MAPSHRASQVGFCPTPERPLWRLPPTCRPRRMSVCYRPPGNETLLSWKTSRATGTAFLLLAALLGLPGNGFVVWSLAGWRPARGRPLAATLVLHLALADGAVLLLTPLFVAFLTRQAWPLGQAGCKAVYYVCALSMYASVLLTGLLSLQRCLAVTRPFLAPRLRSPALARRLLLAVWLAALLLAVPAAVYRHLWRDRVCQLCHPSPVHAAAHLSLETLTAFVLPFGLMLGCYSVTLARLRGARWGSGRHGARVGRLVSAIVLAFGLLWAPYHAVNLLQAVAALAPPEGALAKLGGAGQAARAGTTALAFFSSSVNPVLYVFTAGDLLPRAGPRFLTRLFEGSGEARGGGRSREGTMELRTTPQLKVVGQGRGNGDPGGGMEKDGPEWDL
Protocol: Cell viability according to treatment of the compounds prepared in the examples were measured by a 3-(4,5-dimethylthiazol-2-yl)-2,5-diphenyltetrazolium bromide (MTT) method.
More specifically, 1×10^4 each of the BLT2-nonexpressing cells (CHO-pcDNA3.1 cells) and BLT2-expressing cells (CHO-BLT2 cells), which were prepared in Experimental Example 1, were dispensed in a […], and cultured for 24 hours. Afterward, the culture medium was removed, a serum-free RPMI medium was added, and after two hours, the cells were pre-treated with each of the compound prepared in one of the examples (10 μM), 10 μM DMSO (compound solvent) as a control, and 10 μM 1-[5-ethyl-2-hydroxy-4-[[6-methyl-6-(1H-tetrazol-5-yl)heptyl]oxy]phenyl]-ethanone (LY255283; Cayman) as a positive control for 1 hour. Subsequently, after treatment of LTB4 (300 nM), the cells were cultured for 24 hours. 20 μL of an MTT solution (5 mg/mL, Sigma-Aldrich) was added to each well, the cells were cultured in a humid CO2 incubator at 37° C. for 4 hours, a supernatant was removed, and 200 μL of DMSO was added to each well to dissolve insoluble violet formazan crystals. Absorbance was measured using a microplate reader (Molecular Devices, Sunnyvale, Calif.) at 550 nm, and the measurement was repeated three times.

BLT2 [2] = target: T2, BLT2 (Homo sapiens, UniProt Q9NPC1); assay: LTB4-induced chemotactic motility, Transwell, CHO-BLT2 cells; format: cell-based; details: LTB4 300 nM
T2 construct: HA; expressed in transfected cells
T2 sequence (Q9NPC1 with tags, fused parts or gaps): T1 sequence (Q9NPC1 with tags, fused parts or gaps)
Protocol: (§1) Chemotactic motility was analyzed using a Transwell chamber including a polycarbonate filter (8-μm pore size, Corning Costar) with a 6.5-mm diameter. Specifically, the lower surface of the filter was coated with 10 μg/mL fibronectin in a serum-free RPMI 1640 medium at 37° C. for 1 hour. The experiment was performed by placing the filter dried and coated with RPMI 1640 media containing various amounts of LTB4 in the lower wells of the Transwell chamber, and loading CHO cells stably expressing BLT1 and BLT2 into the upper wells containing serum-free RPMI 1640 media finally at 2×10^4 cells/100 μL. To evaluate the effect of inhibitors, the cells were pre-treated with each inhibitor for 30 minutes before dispensing. After the cells were cultured at 37° C. in 5% CO2 for 3 hours, the filters were fixed with methanol for 3 minutes, and stained with hematoxylin and eosin for 10 minutes. In the experiment, the cells were BLT2-expressing cells (CHO-BLT2 cells) and BLT1-expressing cells (CHO-BLT1 cells), and LY255283 and U75302 were used as positive controls for each type of the cells, and BLT2 ligand LTB4, (300 nM), BLT1 ligand LTB4 (10 nM), and lysophosphatidic acid (LPA; 100 nM) were used as comparative controls. The chemotactic motility was quantitatively analyzed by counting the cells on the lower side of the filter under an optical microscope (magnification, 200×). For each analysis, 6 fields were subjected to counting, each sample was analyzed twice, and the analysis was repeated three times.

BLT1 = target: T3, BLT1 (Homo sapiens, UniProt Q15722); assay: LTB4-induced chemotactic motility, Transwell, CHO-BLT1 cells; format: cell-based; details: 10 μM pre-treatment, LTB4 10 nM
T3 construct: expressed in transfected cells; host or cells: CHO cells stably expressing BLT1 (CHO-BLT1)
Protocol: as §1

BLT2 [3] = target: T2, BLT2; assay: [3H]LTB4 and BLT2 binding inhibition, CHO-BLT2 cell membrane proteins; details: [3H]LTB4 5 nM
Protocol: The inhibition of LTB4 and BLT2 binding (ligand binding affinity) was analyzed using radioactive tritium (^3H)-labeled LTB4 ([^3H]LTB4, ARC; specific activity 160.0 Ci/mmol). After 2×10^6 of CHO-BLT2 cells were plated into a 100-mm culture dish and cultured for 48 hours, an experimental method was carried out as follows: Collected cells were treated using a homogenizer a total of five times for 1 minute each to separate proteins of the cell membrane. Afterward, the cells were subjected to centrifugation at 4° C. and 45,000 rpm for 40 minutes to only collect the proteins of the cell membrane, and thereby, a protein concentration of 40 μg/45 μL was quantified. When a BLT2-containing cell membrane proteins which were quantified in the same manner was treated with the same amount of [^3H]LTB4 (5 nM), and then a different concentration (10^−9, 10^−8, 10^−7, 10^−6 or 10^−5 M) of a compound, a degree of inhibiting the tritium-labeled LTB4 and BLT2 binding was measured using a Hidex 300sL liquid scintillation counter.

MDA-MB-231 cells = assay: IL-8 expression (RT-PCR); format: cell-based
Protocol: (§2) The breast cancer cells such as the MDA-MB-231 cells were obtained from Korean Cell Line Bank (Seoul, Korea), and the MDA-MB-435 cells were provided by J. H. Lee (Asan Medical Center, Seoul, Korea). These cells were cultured in an RPMI 1640 medium (Invitrogen) containing 10% FBS (Life Technologies, Inc.), 1% penicillin (50 units/mL), and an antibiotic antimycotic solution (Life Technologies, Inc.) at 37° C. under a 5% CO2 condition.
(§3) To confirm the IL-8 expression according to the treatment of the compound of the present invention, total RNA was isolated from cells using Easy Blue (Intron, Sungnam, Korea), and quantified by absorbance at 260 nm. Complementary DNA (cDNA) was synthesized with the RNA (1.25 μg) through reverse transcription using a polymerase chain reaction (PCR) technique. An expression level was determined using primers specifically binding to IL-8 and glyceraldehyde-3-phosphate dehydrogenase (GAPDH).

MDA-MB-435 cells = assay: IL-8 expression (RT-PCR); format: cell-based
Protocol: as §2, §3

[4] = test system: cancer cells (MDA-MB-231); assay: Metastasis of breast cancer cells in nude mice; format: in vivo; details: MDA-MB-231 in nude mice, i.p.; LMT-696 and LY255283 2.5 mg/kg, U75302 0.25 mg/kg; 15 weeks
Protocol: An experiment for the metastasis of breast cancer cells according to the treatment of the compound of the present invention was approved by the Ethics Committee of Korea University, and all experimental animals used in this experiment were treated according to the approved guidelines of the Korea University Animal Care and Use Committee. Six-week-old female nude mice (Charles River, Wilmington, Mass.) were injected with cancer cells to confirm cancer cell metastasis. The breast cancer cells were pre-treated with the compound of the present invention (LMT-696, 10 μM), LY255283, U75302 and DMSO, and 24 hours later, harvested with trypsin-EDTA, resuspended in PBS, and then 2×10^6 of the breast cancer cells were intraperitoneally injected into mice anesthetized with zoletil (50 mg/kg). After five days, the compound of the present invention (LMT-696; 2.5 mg/kg), LY255283 (2.5 mg/kg), U75302 (0.25 mg/kg) and DMSO were injected intraperitoneally three times every five days. At 15 weeks after the injection of the breast cancer cells, the mice were dissected to observe the cancer cell metastasis.

T3 sequence (Q15722 whole entry, species assumed): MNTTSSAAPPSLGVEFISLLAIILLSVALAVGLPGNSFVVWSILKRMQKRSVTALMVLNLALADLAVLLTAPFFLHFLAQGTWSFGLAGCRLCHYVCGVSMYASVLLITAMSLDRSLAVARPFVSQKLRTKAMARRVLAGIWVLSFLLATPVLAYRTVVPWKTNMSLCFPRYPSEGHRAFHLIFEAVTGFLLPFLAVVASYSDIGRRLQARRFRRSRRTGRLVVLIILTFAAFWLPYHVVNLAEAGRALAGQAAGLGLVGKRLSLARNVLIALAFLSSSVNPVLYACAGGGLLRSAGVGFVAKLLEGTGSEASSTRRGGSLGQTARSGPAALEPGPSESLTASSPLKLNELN

SMILES: CCCCC(=O)N(CC#Cc1ccc(C(=O)N2CCN(C(C)C)CC2)cc1)c1ccccc1 [LMT-696, N-(3-(4-(4-isopropylpiperazine-1-carbonyl)phenyl)prop-2-ynyl)-N-phenylpentaneamide]
- cell growth compared with the control DMSO [1]: 56.6%
- inhibition at 10 µM (BLT2 [2]; 10 μM pre-treatment, read-out: chemotactic motility inhibited compared with LTB4 (DMSO+)): 70.3%
- IC50 (BLT2 [2]; serum-free, read-out: IC50 of chemotactic motility inhibition): 2000 nM
- inhibitory effect on chemotactic motility (BLT1): did not exhibit the inhibitory effect
- IC50 (BLT2 [3]): 5.6 nM
- IL-8 expression level (MDA-MB-231 cells): significantly inhibited
- IL-8 expression level (MDA-MB-435 cells): significantly inhibited
- metastasis of the cancer cells inhibited as compared with the control [4]: 40%
